Reference: patent US8933230B2, “Phosphorus-containing group-substituted quinoline, its preparation process, medical composition containing the compounds and application” (priority 2011, dated 2015)

Assays:
Test in all cases: KinomeScan kinase panel
Type in all cases: binding
ALK = molecular target: T1, ALK (Homo sapiens, UniProt Q9UM73)
T1 construct: purchased DiscoveRx Corporation (KinomeScan)
Procedure, shortened: (§1)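 At 1000 nM, inhibition by the compound was measured kinase by kinase in the KinomeScan 442-member panel.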

BMX = molecular target: T2, BMX (Homo sapiens, UniProt P51813)
T2 construct: purchased DiscoveRx Corporation (KinomeScan)
Procedure, shortened: as §1

CDC2L1 = molecular target: T3, CDC2L1 (Homo sapiens, UniProt P21127)
T3 construct: purchased DiscoveRx Corporation (KinomeScan)
Procedure, shortened: as §1

DYRK1B = molecular target: T4, DYRK1B (Homo sapiens, UniProt Q9Y463)
T4 construct: purchased DiscoveRx Corporation (KinomeScan)
Procedure, shortened: as §1

EGFR(L747-T751del,Sins) = molecular target: T5, EGFR(L747-T751del,Sins) (Homo sapiens, UniProt P00533, DEL747-750/T751S)
T5 construct: purchased DiscoveRx Corporation (KinomeScan)
Procedure, shortened: as §1

ERK5 = molecular target: T6, ERK5 (Homo sapiens, UniProt Q13164)
T6 construct: purchased DiscoveRx Corporation (KinomeScan)
Procedure, shortened: as §1

ERN1 = molecular target: T7, ERN1 (Homo sapiens, UniProt O75460)
T7 construct: purchased DiscoveRx Corporation (KinomeScan)
Procedure, shortened: as §1

FLT3 = molecular target: T8, FLT3 (Homo sapiens, UniProt P36888)
T8 construct: purchased DiscoveRx Corporation (KinomeScan)
Procedure, shortened: as §1

FRK = molecular target: T9, FRK (Homo sapiens, UniProt P42685)
T9 construct: purchased DiscoveRx Corporation (KinomeScan)
Procedure, shortened: as §1

HUNK = molecular target: T10, HUNK (Homo sapiens, UniProt P57058)
T10 construct: purchased DiscoveRx Corporation (KinomeScan)
Procedure, shortened: as §1

JNK1 = molecular target: T11, JNK1 (Homo sapiens, UniProt P45983)
T11 construct: purchased DiscoveRx Corporation (KinomeScan)
Procedure, shortened: as §1

JNK3 = molecular target: T12, JNK3 (Homo sapiens, UniProt P53779)
T12 construct: purchased DiscoveRx Corporation (KinomeScan)
Procedure, shortened: as §1

MEK5 = molecular target: T13, MEK5 (Homo sapiens, UniProt Q13163)
T13 construct: purchased DiscoveRx Corporation (KinomeScan)
Procedure, shortened: as §1

MERTK = molecular target: T14, MERTK (Homo sapiens, UniProt Q12866)
T14 construct: purchased DiscoveRx Corporation (KinomeScan)
Procedure, shortened: as §1

MET = molecular target: T15, MET (Homo sapiens, UniProt P08581)
T15 construct: purchased DiscoveRx Corporation (KinomeScan)
Procedure, shortened: as §1

MLK2 = molecular target: T16, MLK2 (Homo sapiens, UniProt Q02779)
T16 construct: purchased DiscoveRx Corporation (KinomeScan)
Procedure, shortened: as §1

MST1R = molecular target: T17, MST1R (Homo sapiens, UniProt Q04912)
T17 construct: purchased DiscoveRx Corporation (KinomeScan)
Procedure, shortened: as §1

MST3 = molecular target: T18, MST3 (Homo sapiens, UniProt Q9Y6E0)
T18 construct: purchased DiscoveRx Corporation (KinomeScan)
Procedure, shortened: as §1

MYLK4 = molecular target: T19, MYLK4 (Homo sapiens, UniProt Q86YV6)
T19 construct: purchased DiscoveRx Corporation (KinomeScan)
Procedure, shortened: as §1

MYO3A = molecular target: T20, MYO3A (Homo sapiens, UniProt Q8NEV4)
T20 construct: purchased DiscoveRx Corporation (KinomeScan)
Procedure, shortened: as §1

NDR2 = molecular target: T21, NDR2 (Homo sapiens, UniProt Q9Y2H1)
T21 construct: purchased DiscoveRx Corporation (KinomeScan)
Procedure, shortened: as §1

NEK6 = molecular target: T22, NEK6 (Homo sapiens, UniProt Q9HC98)
T22 construct: purchased DiscoveRx Corporation (KinomeScan panel)
Procedure, shortened: as §1

PAK1 = molecular target: T23, PAK1 (Homo sapiens, UniProt Q13153)
T23 construct: purchased DiscoveRx Corporation (KinomeScan panel)
Procedure, shortened: as §1

PAK2 = molecular target: T24, PAK2 (Homo sapiens, UniProt Q13177)
T24 construct: purchased DiscoveRx Corporation (KinomeScan panel)
Procedure, shortened: as §1

PCTK1 = molecular target: T25, PCTK1 (Homo sapiens, UniProt Q00536)
T25 construct: purchased DiscoveRx Corporation (KinomeScan panel)
Procedure, shortened: as §1

PHKG2 = molecular target: T26, PHKG2 (Homo sapiens, UniProt P15735)
T26 construct: purchased DiscoveRx Corporation (KinomeScan)
Procedure, shortened: as §1

PIK3C2B = molecular target: T27, PIK3C2B (Homo sapiens, UniProt O00750)
T27 construct: purchased DiscoveRx Corporation (KinomeScan)
Procedure, shortened: as §1

PIP5K2B = molecular target: T28, PIP5K2B (Homo sapiens, UniProt P78356)
T28 construct: purchased DiscoveRx Corporation (KinomeScan)
Procedure, shortened: as §1

PKA7 = molecular target: T29, PKA7 (Homo sapiens, UniProt Q9P286)
T29 construct: purchased DiscoveRx Corporation (KinomeScan panel)
Procedure, shortened: as §1

PRKX = molecular target: T30, PRKX (Homo sapiens, UniProt P51817)
T30 construct: purchased DiscoveRx Corporation
Procedure, shortened: as §1

RIPK4 = molecular target: T31, RIPK4 (Homo sapiens, UniProt P57078)
T31 construct: purchased DiscoveRx Corporation
Procedure, shortened: as §1

STK36 = molecular target: T32, STK36 (Homo sapiens, UniProt Q9NRP7)
T32 construct: purchased DiscoveRx Corporation (KinomeScan)
Procedure, shortened: as §1

SgK110 = molecular target: T33, SgK110 (Homo sapiens, UniProt P0C264)
T33 construct: purchased DiscoveRx Corporation (KinomeScan)
Procedure, shortened: as §1

TIE1 = molecular target: T34, TIE1 (Homo sapiens, UniProt P35590)
T34 construct: purchased DiscoveRx Corporation (KinomeScan)
Procedure, shortened: as §1

TNIK = molecular target: T35, TNIK (Homo sapiens, UniProt Q9UKE5)
T35 construct: purchased DiscoveRx Corporation (KinomeScan)
Procedure, shortened: as §1

TNK2 = molecular target: T36, TNK2 (Homo sapiens, UniProt Q07912)
T36 construct: purchased DiscoveRx Corporation (KinomeScan)
Procedure, shortened: as §1

YES = molecular target: T37, YES (Homo sapiens, UniProt P07947)
T37 construct: purchased DiscoveRx Corporation (KinomeScan service)
Procedure, shortened: as §1

T4 sequence (Q9Y463 whole entry): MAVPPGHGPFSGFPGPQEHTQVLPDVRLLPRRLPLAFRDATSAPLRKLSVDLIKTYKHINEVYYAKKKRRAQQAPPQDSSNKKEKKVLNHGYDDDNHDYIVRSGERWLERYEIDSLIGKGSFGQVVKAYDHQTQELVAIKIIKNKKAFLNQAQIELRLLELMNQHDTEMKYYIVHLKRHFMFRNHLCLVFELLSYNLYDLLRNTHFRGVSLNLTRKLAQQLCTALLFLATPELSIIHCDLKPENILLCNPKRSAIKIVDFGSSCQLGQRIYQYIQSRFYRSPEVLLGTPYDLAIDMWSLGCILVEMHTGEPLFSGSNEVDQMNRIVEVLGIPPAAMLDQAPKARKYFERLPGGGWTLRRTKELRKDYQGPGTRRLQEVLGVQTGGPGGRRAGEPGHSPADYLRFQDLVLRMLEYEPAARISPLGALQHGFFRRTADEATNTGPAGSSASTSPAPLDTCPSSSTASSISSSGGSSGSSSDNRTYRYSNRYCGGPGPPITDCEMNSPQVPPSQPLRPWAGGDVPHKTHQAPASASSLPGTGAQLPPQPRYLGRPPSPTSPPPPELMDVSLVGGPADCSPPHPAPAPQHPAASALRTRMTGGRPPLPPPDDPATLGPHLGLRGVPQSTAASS
T21 sequence (Q9Y2H1 whole entry): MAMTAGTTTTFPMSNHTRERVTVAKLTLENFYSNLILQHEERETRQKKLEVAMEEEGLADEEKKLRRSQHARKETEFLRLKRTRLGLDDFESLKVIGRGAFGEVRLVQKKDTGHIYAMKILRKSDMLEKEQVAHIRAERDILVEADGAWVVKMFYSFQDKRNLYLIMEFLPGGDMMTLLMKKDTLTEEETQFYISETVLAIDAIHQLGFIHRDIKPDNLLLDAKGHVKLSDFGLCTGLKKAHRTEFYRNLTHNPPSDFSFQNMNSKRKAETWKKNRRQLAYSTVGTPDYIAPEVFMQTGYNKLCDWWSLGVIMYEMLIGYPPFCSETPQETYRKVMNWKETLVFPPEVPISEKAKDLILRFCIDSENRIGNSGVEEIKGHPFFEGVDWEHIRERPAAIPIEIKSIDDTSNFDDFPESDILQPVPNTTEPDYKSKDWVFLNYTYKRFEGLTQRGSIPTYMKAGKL
T9 sequence (P42685 whole entry): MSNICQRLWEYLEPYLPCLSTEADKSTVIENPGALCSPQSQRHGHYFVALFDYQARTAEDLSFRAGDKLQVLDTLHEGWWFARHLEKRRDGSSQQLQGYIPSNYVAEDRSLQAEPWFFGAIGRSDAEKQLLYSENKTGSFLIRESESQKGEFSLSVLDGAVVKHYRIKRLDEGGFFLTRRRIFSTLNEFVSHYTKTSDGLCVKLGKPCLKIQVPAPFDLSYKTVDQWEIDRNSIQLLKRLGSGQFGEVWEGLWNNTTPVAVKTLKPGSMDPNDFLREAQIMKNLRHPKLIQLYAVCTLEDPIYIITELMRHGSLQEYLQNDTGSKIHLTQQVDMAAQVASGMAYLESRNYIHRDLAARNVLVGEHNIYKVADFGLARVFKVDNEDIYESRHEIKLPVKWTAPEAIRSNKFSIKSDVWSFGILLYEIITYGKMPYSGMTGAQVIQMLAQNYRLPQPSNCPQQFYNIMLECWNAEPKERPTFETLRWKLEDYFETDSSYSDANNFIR
T6 sequence (Q13164 whole entry): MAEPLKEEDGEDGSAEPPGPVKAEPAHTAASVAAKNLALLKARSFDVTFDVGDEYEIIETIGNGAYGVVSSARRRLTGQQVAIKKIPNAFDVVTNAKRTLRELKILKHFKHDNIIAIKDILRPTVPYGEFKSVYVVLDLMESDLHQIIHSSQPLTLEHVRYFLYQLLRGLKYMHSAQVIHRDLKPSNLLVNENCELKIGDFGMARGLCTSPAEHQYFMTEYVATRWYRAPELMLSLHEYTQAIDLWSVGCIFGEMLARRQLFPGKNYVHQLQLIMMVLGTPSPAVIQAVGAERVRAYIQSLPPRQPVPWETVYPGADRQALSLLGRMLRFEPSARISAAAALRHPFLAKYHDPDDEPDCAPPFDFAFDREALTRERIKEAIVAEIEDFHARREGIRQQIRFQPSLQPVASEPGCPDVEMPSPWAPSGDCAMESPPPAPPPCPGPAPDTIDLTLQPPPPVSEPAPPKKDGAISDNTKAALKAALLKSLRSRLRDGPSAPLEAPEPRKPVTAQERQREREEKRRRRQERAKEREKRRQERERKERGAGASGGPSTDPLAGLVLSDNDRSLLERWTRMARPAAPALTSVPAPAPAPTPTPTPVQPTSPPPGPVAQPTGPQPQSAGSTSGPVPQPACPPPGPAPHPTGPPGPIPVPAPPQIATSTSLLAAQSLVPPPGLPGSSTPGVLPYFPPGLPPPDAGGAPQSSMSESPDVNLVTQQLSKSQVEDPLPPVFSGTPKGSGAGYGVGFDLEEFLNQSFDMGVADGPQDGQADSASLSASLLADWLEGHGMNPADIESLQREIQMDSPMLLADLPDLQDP
T13 sequence (Q13163 whole entry): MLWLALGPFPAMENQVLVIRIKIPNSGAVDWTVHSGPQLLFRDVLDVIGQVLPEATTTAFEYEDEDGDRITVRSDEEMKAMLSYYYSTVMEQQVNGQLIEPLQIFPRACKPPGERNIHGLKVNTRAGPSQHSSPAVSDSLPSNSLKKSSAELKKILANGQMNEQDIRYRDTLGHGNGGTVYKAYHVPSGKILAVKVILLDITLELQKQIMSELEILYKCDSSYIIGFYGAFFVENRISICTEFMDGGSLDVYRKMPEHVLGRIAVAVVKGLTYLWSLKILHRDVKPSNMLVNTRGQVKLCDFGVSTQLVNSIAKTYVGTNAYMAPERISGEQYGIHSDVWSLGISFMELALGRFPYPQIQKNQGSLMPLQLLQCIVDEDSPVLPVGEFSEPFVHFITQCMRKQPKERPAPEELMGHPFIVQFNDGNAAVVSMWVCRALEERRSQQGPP
T11 sequence (P45983 whole entry): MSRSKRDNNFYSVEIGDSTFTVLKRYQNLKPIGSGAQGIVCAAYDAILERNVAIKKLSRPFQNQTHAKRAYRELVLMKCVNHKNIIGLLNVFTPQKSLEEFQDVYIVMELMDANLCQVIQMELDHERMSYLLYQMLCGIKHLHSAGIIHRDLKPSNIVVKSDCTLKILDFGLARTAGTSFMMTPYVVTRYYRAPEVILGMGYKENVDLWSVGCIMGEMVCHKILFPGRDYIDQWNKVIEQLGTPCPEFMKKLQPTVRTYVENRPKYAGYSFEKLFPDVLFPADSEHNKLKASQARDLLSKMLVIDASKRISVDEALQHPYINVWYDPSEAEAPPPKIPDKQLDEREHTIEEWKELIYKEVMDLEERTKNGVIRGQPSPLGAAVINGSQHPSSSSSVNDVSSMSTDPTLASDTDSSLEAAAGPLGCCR
T24 sequence (Q13177 whole entry): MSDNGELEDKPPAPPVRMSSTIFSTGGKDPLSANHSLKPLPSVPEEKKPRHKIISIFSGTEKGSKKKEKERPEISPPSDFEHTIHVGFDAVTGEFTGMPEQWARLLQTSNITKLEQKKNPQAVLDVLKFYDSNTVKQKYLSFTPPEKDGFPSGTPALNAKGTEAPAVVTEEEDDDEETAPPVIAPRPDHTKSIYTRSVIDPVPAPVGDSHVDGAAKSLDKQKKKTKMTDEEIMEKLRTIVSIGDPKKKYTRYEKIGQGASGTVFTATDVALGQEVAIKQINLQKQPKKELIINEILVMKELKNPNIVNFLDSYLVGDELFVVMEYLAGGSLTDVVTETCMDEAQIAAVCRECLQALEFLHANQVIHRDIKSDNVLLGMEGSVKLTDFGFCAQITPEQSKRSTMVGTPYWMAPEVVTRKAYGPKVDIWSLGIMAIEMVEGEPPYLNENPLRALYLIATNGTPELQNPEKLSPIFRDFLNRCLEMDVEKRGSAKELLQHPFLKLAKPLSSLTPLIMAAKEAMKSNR
T12 sequence (P53779 whole entry): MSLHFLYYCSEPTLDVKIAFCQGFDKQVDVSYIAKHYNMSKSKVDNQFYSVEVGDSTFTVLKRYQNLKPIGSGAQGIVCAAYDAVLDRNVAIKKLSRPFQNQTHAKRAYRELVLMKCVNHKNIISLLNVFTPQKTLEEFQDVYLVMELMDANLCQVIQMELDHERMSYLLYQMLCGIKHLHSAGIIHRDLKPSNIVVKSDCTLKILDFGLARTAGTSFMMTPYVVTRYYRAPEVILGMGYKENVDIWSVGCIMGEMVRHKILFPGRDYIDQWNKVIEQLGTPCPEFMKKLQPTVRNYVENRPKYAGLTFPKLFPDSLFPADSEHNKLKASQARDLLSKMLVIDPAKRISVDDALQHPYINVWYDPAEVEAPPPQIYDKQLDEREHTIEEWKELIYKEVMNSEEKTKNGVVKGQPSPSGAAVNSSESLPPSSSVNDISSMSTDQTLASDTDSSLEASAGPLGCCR
T18 sequence (Q9Y6E0 whole entry): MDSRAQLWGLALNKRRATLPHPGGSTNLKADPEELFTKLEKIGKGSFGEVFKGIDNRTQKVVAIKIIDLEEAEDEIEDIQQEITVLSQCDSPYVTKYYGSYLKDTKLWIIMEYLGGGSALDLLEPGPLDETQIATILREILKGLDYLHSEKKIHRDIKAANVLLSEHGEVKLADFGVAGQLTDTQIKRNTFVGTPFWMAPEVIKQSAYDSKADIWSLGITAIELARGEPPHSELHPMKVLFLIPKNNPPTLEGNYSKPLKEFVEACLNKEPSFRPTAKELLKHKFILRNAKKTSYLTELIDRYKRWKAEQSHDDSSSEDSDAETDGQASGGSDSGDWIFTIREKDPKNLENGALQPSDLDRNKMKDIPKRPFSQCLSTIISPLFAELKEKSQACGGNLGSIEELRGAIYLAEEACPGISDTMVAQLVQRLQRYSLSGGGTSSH

## CCOP(=O)(CN1CCC(COc2cc3nccc(Oc4ccc(NC(=O)C5(C(=O)Nc6ccc(F)cc6)CC5)cc4F)c3cc2OC)CC1)OCC [Example 10, N1-[4-[[7-[[1-(diethoxyphosphorylmethyl)-4-piperidinyl]methoxyl]-6-methoxyl-4-quinolyl]oxyl]-3-fluorophenyl]-N1′-(4-fluorophenyl)cyclopropane-1,1-dicarboxamide]
ALK
  % Ctrl@1000 nM: 15 % Ctrl
BMX
  % Ctrl@1000 nM: 92 % Ctrl
CDC2L1
  % Ctrl@1000 nM: 100 % Ctrl
DYRK1B
  % Ctrl@1000 nM: 86 % Ctrl
EGFR(L747-T751del,Sins)
  % Ctrl@1000 nM: 72 % Ctrl
ERK5
  % Ctrl@1000 nM: 100 % Ctrl
ERN1
  % Ctrl@1000 nM: 81 % Ctrl
FLT3
  % Ctrl@1000 nM: 2.3 % Ctrl
FRK
  % Ctrl@1000 nM: 8.8 % Ctrl
HUNK
  % Ctrl@1000 nM: 100 % Ctrl
JNK1
  % Ctrl@1000 nM: 80 % Ctrl
JNK3
  % Ctrl@1000 nM: 95 % Ctrl
MEK5
  % Ctrl@1000 nM: 0.25 % Ctrl
MERTK
  % Ctrl@1000 nM: 2.1 % Ctrl
MET
  % Ctrl@1000 nM: 7.7 % Ctrl
MLK2
  % Ctrl@1000 nM: 78 % Ctrl
MST1R
  % Ctrl@1000 nM: 4 % Ctrl
MST3
  % Ctrl@1000 nM: 100 % Ctrl
MYLK4
  % Ctrl@1000 nM: 100 % Ctrl
MYO3A
  % Ctrl@1000 nM: 93 % Ctrl
NDR2
  % Ctrl@1000 nM: 82 % Ctrl
NEK6
  % Ctrl@1000 nM: 100 % Ctrl
PAK1
  % Ctrl@1000 nM: 37 % Ctrl
PAK2
  % Ctrl@1000 nM: 54 % Ctrl
PCTK1
  % Ctrl@1000 nM: 100 % Ctrl
PHKG2
  % Ctrl@1000 nM: 96 % Ctrl
PIK3C2B
  % Ctrl@1000 nM: 100 % Ctrl
PIP5K2B
  % Ctrl@1000 nM: 100 % Ctrl
PKA7
  % Ctrl@1000 nM: 100 % Ctrl
PRKX
  % Ctrl@1000 nM: 81 % Ctrl
RIPK4
  % Ctrl@1000 nM: 89 % Ctrl
STK36
  % Ctrl@1000 nM: 100 % Ctrl
SgK110
  % Ctrl@1000 nM: 100 % Ctrl
TIE1
  % Ctrl@1000 nM: 4 % Ctrl
TNIK
  % Ctrl@1000 nM: 70 % Ctrl
TNK2
  % Ctrl@1000 nM: 94 % Ctrl
YES
  % Ctrl@1000 nM: 20 % Ctrl
